Tests used:
[1] = molecular target: Dual specificity protein kinase CLK4 (Homo sapiens) (UniProt Q9HAZ1); assay: Inhibition of human recombinant CLK4 at 40 nM related to control ULK1
[2] = molecular target: Receptor tyrosine-protein kinase erbB-4 (Homo sapiens) (UniProt Q15303); assay: Inhibition of human recombinant ErbB4 at 40 nM related to control ULK1
[3] = molecular target: T1, Mitogen-activated protein kinase kinase kinase kinase 2 (Homo sapiens) (UniProt Q12851); assay: Inhibition of human recombinant GCK at 40 nM related to control ULK1
T1 sequence (whole entry): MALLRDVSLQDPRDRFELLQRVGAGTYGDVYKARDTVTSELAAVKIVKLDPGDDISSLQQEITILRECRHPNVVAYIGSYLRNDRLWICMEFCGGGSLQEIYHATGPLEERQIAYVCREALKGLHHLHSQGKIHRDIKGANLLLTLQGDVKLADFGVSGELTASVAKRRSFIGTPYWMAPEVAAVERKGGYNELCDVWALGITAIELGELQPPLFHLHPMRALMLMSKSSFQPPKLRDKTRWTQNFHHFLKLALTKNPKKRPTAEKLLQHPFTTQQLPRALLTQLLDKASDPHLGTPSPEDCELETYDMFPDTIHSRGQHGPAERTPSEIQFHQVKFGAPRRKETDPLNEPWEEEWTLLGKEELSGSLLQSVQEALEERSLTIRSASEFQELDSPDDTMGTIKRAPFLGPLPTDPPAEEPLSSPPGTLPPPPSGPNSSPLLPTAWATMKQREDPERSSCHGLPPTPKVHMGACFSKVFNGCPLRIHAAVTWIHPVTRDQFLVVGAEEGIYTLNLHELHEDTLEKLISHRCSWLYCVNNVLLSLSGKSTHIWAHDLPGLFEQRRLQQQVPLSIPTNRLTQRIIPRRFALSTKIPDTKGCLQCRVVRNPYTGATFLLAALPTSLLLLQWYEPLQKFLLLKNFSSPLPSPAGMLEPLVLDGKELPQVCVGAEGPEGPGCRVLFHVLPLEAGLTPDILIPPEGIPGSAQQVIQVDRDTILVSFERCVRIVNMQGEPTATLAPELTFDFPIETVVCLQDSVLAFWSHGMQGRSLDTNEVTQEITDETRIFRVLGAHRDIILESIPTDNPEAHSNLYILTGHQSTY

[4] = molecular target: Serine/threonine-protein kinase SIK2 (Homo sapiens) (UniProt Q9H0K1); assay: Inhibition of human recombinant QIK at 40 nM related to control ULK1
Serine/threonine-protein kinase SIK2 (Homo sapiens), sequence (Q9H0K1 whole entry, looked up): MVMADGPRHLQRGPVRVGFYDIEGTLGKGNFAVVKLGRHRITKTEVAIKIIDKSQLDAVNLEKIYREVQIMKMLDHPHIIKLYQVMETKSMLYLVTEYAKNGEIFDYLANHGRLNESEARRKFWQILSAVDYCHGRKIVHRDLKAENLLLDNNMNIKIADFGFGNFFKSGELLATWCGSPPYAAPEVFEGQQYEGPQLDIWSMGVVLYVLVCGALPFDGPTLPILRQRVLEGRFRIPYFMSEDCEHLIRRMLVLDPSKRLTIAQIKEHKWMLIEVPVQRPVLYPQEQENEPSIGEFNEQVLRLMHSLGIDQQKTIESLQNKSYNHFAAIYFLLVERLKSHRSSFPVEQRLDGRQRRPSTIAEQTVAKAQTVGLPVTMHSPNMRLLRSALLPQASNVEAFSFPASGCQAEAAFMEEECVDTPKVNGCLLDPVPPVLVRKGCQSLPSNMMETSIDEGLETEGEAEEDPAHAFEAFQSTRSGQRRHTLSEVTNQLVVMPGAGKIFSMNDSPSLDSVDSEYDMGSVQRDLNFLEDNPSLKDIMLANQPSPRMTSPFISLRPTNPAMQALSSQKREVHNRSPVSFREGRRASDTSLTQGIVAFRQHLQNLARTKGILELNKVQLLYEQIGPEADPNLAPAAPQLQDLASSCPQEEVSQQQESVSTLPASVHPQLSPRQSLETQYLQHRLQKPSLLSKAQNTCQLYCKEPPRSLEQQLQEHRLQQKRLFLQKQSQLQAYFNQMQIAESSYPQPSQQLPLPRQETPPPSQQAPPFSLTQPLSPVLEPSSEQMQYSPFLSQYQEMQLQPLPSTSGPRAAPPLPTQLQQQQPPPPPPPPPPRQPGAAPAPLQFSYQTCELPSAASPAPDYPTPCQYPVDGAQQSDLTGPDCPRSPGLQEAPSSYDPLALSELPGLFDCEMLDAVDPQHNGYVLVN

[5] = molecular target: Serine/threonine-protein kinase 33 (Homo sapiens) (UniProt Q9BYT3); assay: Inhibition of human recombinant STK33 at 15 nM related to control ULK1
Serine/threonine-protein kinase 33 (Homo sapiens), sequence (Q9BYT3 whole entry, looked up): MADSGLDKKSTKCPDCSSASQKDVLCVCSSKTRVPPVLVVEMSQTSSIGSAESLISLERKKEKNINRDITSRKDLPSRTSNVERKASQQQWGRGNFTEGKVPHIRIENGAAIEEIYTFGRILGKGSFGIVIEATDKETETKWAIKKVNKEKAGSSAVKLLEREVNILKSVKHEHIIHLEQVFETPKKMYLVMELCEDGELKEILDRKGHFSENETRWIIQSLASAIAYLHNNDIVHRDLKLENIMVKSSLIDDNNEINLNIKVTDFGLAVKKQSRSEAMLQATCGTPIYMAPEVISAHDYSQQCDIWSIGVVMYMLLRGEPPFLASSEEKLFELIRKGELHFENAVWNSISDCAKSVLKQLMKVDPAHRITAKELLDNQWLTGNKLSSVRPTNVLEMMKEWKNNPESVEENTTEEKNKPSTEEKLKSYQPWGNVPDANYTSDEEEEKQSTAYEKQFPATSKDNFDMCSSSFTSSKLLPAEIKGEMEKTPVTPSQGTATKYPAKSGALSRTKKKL

[6] = molecular target: Eukaryotic translation initiation factor 2-alpha kinase 1 (Homo sapiens) (UniProt Q9BQI3); assay: Inhibition of human recombinant HRI at 15 nM in presence of ATP by radiometric assay relative to control
Eukaryotic translation initiation factor 2-alpha kinase 1 (Homo sapiens), sequence (Q9BQI3 whole entry): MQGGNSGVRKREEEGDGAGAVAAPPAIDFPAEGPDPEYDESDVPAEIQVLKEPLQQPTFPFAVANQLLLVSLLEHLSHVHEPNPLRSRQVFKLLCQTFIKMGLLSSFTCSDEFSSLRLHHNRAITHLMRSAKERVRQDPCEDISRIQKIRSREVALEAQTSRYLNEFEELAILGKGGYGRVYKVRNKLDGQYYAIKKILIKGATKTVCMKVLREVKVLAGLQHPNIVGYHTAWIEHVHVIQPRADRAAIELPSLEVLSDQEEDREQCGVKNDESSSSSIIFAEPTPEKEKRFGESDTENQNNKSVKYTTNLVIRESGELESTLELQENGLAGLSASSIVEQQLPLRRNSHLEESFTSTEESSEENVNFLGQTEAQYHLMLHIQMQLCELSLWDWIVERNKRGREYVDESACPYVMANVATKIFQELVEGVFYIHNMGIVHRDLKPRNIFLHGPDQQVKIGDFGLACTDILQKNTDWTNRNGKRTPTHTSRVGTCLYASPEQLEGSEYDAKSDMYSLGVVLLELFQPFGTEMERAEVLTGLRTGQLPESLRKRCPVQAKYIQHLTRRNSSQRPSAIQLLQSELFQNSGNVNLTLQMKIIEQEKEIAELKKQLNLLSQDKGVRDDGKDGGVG

[7] = molecular target: T2, Ephrin type-B receptor 4 (Homo sapiens) (UniProt P54760); assay: Inhibition of human recombinant EphB4 at 15 nM in presence of ATP by radiometric assay relative to control
T2 sequence (whole entry): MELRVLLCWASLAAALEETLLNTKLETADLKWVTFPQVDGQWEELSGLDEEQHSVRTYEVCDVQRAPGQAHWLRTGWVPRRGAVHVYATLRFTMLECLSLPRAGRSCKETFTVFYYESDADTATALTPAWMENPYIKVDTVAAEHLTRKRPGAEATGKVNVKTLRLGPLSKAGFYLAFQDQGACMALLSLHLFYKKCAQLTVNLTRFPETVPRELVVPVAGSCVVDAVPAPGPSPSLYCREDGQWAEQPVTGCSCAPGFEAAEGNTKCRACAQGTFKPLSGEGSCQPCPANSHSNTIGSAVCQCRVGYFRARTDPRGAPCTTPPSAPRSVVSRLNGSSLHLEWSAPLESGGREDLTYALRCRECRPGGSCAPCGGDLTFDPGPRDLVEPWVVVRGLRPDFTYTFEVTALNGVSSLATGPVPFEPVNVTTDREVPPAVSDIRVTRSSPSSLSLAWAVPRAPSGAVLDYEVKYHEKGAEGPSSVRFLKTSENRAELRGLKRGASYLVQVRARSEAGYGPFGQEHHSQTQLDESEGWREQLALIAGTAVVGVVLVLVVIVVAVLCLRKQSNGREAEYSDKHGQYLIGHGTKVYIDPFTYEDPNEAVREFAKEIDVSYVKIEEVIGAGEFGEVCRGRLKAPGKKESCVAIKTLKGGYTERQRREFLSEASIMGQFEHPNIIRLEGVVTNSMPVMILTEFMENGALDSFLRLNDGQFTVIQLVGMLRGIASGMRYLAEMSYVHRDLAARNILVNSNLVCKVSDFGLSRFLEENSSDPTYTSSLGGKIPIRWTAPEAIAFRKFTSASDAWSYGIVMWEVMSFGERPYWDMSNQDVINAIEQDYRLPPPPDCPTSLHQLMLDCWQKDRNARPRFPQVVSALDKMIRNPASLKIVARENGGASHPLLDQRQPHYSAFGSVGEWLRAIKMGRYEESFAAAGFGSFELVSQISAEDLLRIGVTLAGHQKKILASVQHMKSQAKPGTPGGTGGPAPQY

[8] = molecular target: cAMP-dependent protein kinase catalytic subunit beta (Homo sapiens) (UniProt P22694); assay: Inhibition of human recombinant PKACbeta at 500 nM related to control ULK1
[9] = molecular target: T3, Inhibitor of nuclear factor kappa-B kinase subunit beta (Homo sapiens) (UniProt O14920); assay: Inhibition of human recombinant IKKb at 500 nM related to control ULK1
T3 sequence (whole entry): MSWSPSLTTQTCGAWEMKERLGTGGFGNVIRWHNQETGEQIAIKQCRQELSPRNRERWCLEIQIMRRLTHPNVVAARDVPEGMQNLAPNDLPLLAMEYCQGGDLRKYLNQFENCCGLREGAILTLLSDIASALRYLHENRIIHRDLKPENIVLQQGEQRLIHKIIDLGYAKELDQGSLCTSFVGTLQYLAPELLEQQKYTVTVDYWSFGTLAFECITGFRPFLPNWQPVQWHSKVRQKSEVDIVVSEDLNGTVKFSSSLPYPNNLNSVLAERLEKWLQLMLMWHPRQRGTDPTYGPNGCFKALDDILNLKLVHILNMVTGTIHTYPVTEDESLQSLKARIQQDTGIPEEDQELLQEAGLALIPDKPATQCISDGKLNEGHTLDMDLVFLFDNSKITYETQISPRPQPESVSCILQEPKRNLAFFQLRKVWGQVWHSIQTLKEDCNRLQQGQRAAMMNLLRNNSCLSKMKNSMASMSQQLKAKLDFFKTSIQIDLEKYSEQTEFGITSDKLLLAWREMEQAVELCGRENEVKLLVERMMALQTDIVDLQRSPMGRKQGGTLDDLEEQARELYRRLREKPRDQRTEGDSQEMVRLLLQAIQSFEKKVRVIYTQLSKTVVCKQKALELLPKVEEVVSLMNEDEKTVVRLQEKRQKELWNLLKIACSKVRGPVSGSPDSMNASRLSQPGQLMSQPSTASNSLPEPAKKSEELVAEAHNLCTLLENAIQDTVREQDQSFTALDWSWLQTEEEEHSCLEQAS

Dual specificity protein kinase CLK4 (Homo sapiens), sequence (Q9HAZ1 whole entry, looked up): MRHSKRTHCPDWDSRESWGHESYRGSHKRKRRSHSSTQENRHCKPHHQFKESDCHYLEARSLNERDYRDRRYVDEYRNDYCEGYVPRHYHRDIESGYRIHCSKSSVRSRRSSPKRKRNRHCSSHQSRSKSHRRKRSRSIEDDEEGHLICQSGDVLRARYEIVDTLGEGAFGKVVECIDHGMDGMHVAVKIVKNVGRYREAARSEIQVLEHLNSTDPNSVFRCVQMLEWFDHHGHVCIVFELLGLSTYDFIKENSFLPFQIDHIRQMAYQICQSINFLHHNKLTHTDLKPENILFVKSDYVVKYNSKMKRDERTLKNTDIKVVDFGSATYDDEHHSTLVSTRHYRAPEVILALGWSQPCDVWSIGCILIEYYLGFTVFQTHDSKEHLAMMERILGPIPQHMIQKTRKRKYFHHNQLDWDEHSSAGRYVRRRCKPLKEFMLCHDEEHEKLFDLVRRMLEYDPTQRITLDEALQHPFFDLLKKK
Receptor tyrosine-protein kinase erbB-4 (Homo sapiens), sequence (Q15303 whole entry): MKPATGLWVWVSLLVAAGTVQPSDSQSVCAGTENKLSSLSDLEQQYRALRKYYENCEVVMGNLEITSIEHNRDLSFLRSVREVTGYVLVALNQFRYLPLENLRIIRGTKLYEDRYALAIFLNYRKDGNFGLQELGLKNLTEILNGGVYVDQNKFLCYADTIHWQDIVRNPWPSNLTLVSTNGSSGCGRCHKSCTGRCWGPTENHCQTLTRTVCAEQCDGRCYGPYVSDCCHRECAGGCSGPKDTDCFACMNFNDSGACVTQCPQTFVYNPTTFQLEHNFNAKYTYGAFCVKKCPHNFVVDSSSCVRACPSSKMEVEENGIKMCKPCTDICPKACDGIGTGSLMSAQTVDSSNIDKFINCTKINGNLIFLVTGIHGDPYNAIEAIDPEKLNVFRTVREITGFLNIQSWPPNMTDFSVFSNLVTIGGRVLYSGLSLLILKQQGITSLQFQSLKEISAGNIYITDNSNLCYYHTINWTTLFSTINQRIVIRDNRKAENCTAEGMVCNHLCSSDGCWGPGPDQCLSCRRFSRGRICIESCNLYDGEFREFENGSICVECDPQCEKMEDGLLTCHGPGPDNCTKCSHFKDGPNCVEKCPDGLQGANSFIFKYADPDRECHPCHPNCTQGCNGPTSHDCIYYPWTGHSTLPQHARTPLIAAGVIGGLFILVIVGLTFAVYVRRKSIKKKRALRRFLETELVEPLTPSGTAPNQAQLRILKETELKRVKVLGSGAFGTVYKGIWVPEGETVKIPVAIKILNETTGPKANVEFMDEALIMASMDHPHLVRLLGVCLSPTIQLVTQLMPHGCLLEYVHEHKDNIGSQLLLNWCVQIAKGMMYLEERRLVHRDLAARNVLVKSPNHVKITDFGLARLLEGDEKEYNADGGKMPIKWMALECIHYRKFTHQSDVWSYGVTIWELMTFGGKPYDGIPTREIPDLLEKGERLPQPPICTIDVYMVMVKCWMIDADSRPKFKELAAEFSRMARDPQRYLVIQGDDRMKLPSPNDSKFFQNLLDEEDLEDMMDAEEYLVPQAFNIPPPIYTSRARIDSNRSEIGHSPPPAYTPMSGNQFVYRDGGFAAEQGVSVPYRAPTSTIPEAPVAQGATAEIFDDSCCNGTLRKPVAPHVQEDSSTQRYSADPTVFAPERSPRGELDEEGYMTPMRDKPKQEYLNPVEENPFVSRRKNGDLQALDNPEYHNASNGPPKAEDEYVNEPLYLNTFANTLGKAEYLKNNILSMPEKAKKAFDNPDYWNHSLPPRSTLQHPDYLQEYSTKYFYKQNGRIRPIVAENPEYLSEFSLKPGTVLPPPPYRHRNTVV

SMILES: O=C(N[C@@H](C1CC1)C(F)(F)F)c1cc(-c2cnn3cc(-c4ccc(F)cc4)cnc23)cs1
- fold change (FC) [1]: 0.71
- fold change (FC) [2]: 0
- fold change (FC) [3]: 0
- fold change (FC) [4]: 0.74

SMILES: CC(C)[C@H](NC(=O)c1cc(-c2cnn3cc(-c4ccc(OCCN5CCCCC5)cc4)cnc23)cs1)C(F)(F)F
- fold change (FC) [5]: 0.18
- inhibition [6]: 0%
- inhibition [7]: 3%

SMILES: CNC(=O)c1ccccc1Oc1nc(Nc2cc(OC)c(OC)c(OC)c2)ncc1Br
- fold change (FC) [8]: 0
- fold change (FC) [9]: 0.03
